# “Also recorded” adds a separate entry of the source.
# Columns and labels:
# EphA2 [1] = biological target: T1, EphA2 (Homo sapiens, UniProt P29317); assay: EphA2 receptor internalization in U373-A2 glioma cells (immunofluorescence); type: cell-based; parameters: expressed in transfected cells; host or cells: MDA-MB-231 (MDA-231-A2), HEK 293 (HEK 293-A2), A172 (A172-A2), U373 (U373-A2); conditions: 60 min, 50 μM DZ or 1 μg/ml ephrin-A1-Fc
# Description: (§1) Cells were plated in 24-well dishes at a density of 100,000 cells/well and grown for 24 hours prior to stimulation with appropriate compounds and ephrins for the given amounts of time. Compounds were prepared in DMSO at 500 times the final concentrations and 0.2% DMSO was used as vehicle control. Following treatment, cells were lysed directly in SDS Gel Loading Buffer and immunoblotted as described previously. Immunoprecipitation and immunofluorescence staining was performed as described. For immunoprecipitation, 300,000 cells/well were plated in 6-well dishes and lysed in modified RIPA Buffer (20 mM Tris-HCl pH 7.4, 20 mM NaF, 150 mM NaCl, 10% glycerol, 0.1% SDS, 0.5% DCA, 2 mM EDTA, 1% Triton X-100) following treatment. Either […] of ephrin-A1-Fc, or […] of EphA2 mouse monoclonal antibody (Clone D7, Millipore) were used, and mouse IgG was used as a negative control for EphA2 IP.
# (§2) Similar to other receptor tyrosine kinases, activation of the EphA2 receptor by its ligand, ephrin-A1, results in receptor internalization and eventual degradation. […] This was first performed using the U373 glioma cell line engineered to overexpress EphA2.
# ERK and Akt = ERK and Akt inhibition in LK133A-Vec and LK133A-A2 liver epithelial cells (immunoblot); type: cell-based, mice
# Description: as §1
# To address this question, we utilized an immortalized liver epithelial cell line, LK133A, isolated from a hepatoma induced by DEN in EphA2 knockout mice. Retroviral vector was used to restore EphA2 expression in these cells (LK133A-A2), and cells transduced with an empty vector were used as control (LK133AVec).
# EphA2 [2] = biological target: T1, EphA2; assay: Internalization of endogenous EphA2 in parental MDA-MB-231 cells (immunofluorescence); type: cell-based; conditions: two hours, 50 μM
# Description: as §1, §2
# EphA2 [3] = biological target: T1, EphA2; assay: EphA2 activation in A172-A2 glioma cells (immunoprecipitation, immunoblot); type: cell-based; parameters: expressed in transfected cells; host or cells: A172 (A172-A2)
# Description: Cells were plated in 24-well dishes at a density of 100,000 cells/well and grown for 24 hours prior to stimulation with appropriate compounds and ephrins for the given amounts of time. Compounds were prepared in DMSO at 500 times the final concentrations and 0.2% DMSO was used as vehicle control. Following treatment, cells were lysed directly in SDS Gel Loading Buffer and immunoblotted as described previously. […] For immunoprecipitation, 300,000 cells/well were plated in 6-well dishes and lysed in modified RIPA Buffer (20 mM Tris-HCl pH 7.4, 20 mM NaF, 150 mM NaCl, 10% glycerol, 0.1% SDS, 0.5% DCA, 2 mM EDTA, 1% Triton X-100) following treatment. Either 10 ag of ephrin-A1-Fc, or 4 mg of EphA2 mouse monoclonal antibody (Clone D7, Millipore) were used, and mouse IgG was used as a negative control for EphA2 IP. […] We first tested this by utilizing the A172 glioma cells engineered to overexpress EphA2 receptor (A172-A2).
# EphA1 = biological target: T2, EphA1 (Homo sapiens, UniProt P21709); assay: Eph receptor activation in HEK 293 cells overexpressing EphA1; type: cell-based; conditions: HEK 293 cells overexpressing EphA1, same concentrations, 60 minutes
# T2 construct: expressed in transfected cells; host or cells: HEK 293
# T2 sequence (P21709 26-976): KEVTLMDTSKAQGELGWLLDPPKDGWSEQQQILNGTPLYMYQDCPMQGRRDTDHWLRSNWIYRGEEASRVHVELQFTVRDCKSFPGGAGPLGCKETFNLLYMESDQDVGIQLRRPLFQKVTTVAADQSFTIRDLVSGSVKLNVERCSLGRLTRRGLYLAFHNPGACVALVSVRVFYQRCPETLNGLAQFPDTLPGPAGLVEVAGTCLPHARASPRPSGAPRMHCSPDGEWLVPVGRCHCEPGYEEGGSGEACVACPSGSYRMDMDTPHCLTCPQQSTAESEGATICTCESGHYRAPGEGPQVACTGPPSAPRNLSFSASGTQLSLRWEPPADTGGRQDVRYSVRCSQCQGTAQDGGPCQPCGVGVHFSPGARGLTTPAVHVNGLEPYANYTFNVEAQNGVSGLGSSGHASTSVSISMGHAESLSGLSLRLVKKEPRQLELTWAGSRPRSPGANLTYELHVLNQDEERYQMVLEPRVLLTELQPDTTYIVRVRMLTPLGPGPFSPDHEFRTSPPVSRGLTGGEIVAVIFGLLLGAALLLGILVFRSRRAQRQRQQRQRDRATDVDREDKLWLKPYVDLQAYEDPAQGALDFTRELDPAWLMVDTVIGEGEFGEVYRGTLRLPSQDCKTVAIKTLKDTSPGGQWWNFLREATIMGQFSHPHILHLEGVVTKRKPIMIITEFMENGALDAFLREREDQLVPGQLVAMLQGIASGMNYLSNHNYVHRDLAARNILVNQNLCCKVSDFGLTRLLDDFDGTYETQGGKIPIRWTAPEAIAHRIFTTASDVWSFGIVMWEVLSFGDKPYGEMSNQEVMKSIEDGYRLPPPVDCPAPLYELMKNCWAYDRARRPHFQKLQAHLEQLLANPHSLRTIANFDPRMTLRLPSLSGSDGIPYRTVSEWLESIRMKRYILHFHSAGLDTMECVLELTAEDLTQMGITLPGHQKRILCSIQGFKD
# Description: Cells were plated in 24-well dishes at a density of 100,000 cells/well and grown for 24 hours prior to stimulation with appropriate compounds and ephrins for the given amounts of time. Compounds were prepared in DMSO at 500 times the final concentrations and 0.2% DMSO was used as vehicle control. Following treatment, cells were lysed directly in SDS Gel Loading Buffer and immunoblotted as described previously. […] For this purpose, HEK 293 cell lines overexpressing EphA1, EphA2, EphA3, EphA4, and EphB3 kinases were utilized.
# [4] = system: DU145 and PC-3 cell xenografts; conditions: previously shown, independent of α1-adrenoreceptor; cited from earlier work
# PC3-DAB2IP KD cells = assay: Haptotactic cell migration toward fibronectin (modified Boyden chamber); type: cell-based, human; conditions: 4 hours
# From the text: One of the well-established functions of Eph receptors is the ligand-dependent repulsive guidance of cell migration. As a ligand-mimicking agonist for EphA2, doxazosin is expected to activate EphA2 on tumor cells and repulse migrating tumor cells in vitro. To test this possibility, we first investigated the effects of doxazosin on integrin-mediated haptotactic cell migration toward fibronectin in a modified Boyden chamber cell migration assay. […] The inhibitory effects were observed when doxazosin was presented either in the bottom chamber, or in both top and bottom chambers in the Transwell assay system. […] Therefore, doxazosin can recapitulate a key function attributed to its native ligands, i.e., negative regulation of cell migration.
# [5] = system: MDA-MB-231, A172-A2 and PC3-DAB2IP KD cells; assay: Chemotactic cell migration toward hepatocyte growth factor (HGF); type: cell-based; conditions: all three cell lines; lesser degree than in the haptotactic assay
# EphA2 [6] = biological target: T1, EphA2; assay: Activation of endogenous EphA2 in PC-3 cells (pEphA/B immunoblot); type: cell-based; parameters: host or cells: PC-3; conditions: endogenous EphA2, 30 minutes
# Description: as §1
# To determine whether the EphA2 agonist activity of doxazosin is cell-context specific, we evaluated the effects of doxazosin on additional cell types. We first utilized HEK 293 cells overexpressing EphA2 (HEK 293-A2) that we described previously. […] Next we tested PC-3 cells that express high levels of endogenous EphA2 receptor. […] We next evaluated the time-course of activation in both MDA-231-A2 and HEK 293-A2 cells upon treatment with a single 50 μM dose of doxazosin.
# T1 sequence (P29317 24-976): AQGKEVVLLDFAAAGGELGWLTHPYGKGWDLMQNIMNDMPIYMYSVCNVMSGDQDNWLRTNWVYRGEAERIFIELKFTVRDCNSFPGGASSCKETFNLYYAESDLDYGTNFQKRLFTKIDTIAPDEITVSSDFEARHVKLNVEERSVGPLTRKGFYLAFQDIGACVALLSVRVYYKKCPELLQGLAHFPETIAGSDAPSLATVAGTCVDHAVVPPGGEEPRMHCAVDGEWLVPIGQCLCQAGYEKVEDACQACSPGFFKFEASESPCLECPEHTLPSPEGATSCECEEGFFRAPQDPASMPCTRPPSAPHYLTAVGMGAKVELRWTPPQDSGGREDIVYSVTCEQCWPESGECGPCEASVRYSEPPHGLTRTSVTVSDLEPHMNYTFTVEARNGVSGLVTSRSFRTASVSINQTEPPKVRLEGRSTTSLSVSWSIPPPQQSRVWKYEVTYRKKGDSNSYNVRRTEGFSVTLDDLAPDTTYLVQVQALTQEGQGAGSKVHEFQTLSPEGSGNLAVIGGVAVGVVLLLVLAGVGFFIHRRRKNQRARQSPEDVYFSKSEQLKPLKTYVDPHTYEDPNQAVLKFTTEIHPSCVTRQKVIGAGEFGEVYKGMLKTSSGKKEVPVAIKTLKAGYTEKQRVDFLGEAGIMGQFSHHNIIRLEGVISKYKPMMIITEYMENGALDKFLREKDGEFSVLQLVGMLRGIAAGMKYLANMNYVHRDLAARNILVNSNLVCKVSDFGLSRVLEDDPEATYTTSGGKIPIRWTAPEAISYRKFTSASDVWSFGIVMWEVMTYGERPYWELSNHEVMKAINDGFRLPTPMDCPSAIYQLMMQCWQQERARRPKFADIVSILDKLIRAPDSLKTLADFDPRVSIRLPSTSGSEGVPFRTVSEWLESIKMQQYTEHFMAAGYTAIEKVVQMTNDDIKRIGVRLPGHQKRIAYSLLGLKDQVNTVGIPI
structure (smiles),measurement,setting,value
COc1cc2nc(N3CCN(C(=O)C4COc5ccccc5O4)CC3)nc(N)c2cc1OC (centres unmarked) [doxazosin],EphA2 internalization,EphA2 [1],significant EphA2 internalization
same,ERK and Akt inhibition after reintroduction of EphA2 expression,ERK and Akt; LK133A-A2 cells,restored ERK and Akt inhibition
same,inhibition of ERK and Akt activities in the absence of EphA2,"ERK and Akt; LK133A-Vec cells (EphA2 knockout, empty vector)",neither doxazosin nor ephrin-A1-Fc was able to inhibit ERK and Akt activities; also recorded: notable increase in ERK and Akt activation
same,internalization of endogenous EphA2,EphA2 [2],significant internalization of the endogenous EphA2
same,concentration at which EphA2 activation starts,"EphA2 [3]; A172-A2 glioma cells, 90 minutes",around 25 μM
same,EphA2 level after treatment,EphA2 [3]; A172 cells,degradation of EphA2
same,"EphA1 activation, Eph receptor panel",EphA1,no activation of EphA1
same,subcutaneous growth of DU145 and PC-3 cell xenografts,[4],moderately decrease subcutaneous growth
same,haptotactic cell migration toward fibronectin,PC3-DAB2IP KD cells,dose-dependent inhibition of cell migration
same,chemotactic cell migration toward HGF,[5],dose-dependent inhibition
same,concentration at which EphA2 activation became evident,EphA2 [6],50 µM

# — patent publication US11814372B2, “Agonists of EPHA and their uses” (CASE WESTERN RESERVE UNIVERSITY, priority 2017, dated 2023)
